Experimental data as given in paper PMC8583417, “Evaluation of the Antimicrobial Efficacy of N-Acetyl-L-Cysteine, Rhamnolipids, and Usnic Acid—Novel Approaches to Fight Food-Borne Pathogens” (International Journal of Molecular Sciences, 2021).

Columns and labels:
S. Infantis S13 [1] = test: MIC for planktonic cell growth (A625nm); type: cell-based, Salmonella enterica Infantis; conditions: for MICPC80: ≥80% inhibition, 24 h
Protocol: (§1) Ten concentrations of NAC, RLs, and UA were tested to determine the minimum inhibitory concentration for planktonic growth, and subsequently, the six highest concentrations were applied on preformed biofilms to evaluate the biofilm eradication ability of the compounds. MIC was defined as the lowest substance concentration able to inhibit at least 80% of microbial growth (MICPC80 for planktonic cells, MICBC80 for further growth of biofilm cells), inhibit 80% of metabolic activity (MICBM80 for biofilm metabolic activity, MICMPB80 for metabolic activity of preformed biofilm), prevent biofilm formation by at least 80% (MICBF80 for biofilm formation), or reduce a preformed biofilm by at least 80% (MICBR80 for biofilm reduction). The results of MICs are summarized in Table 1 (planktonic cells) and Table 2 (biofilm-associated cells).
(§2) The determination of MICs was performed according to Chlumsky et al.. Briefly, 96-well flat-bottomed microtiter plates were inoculated with 75 µL (for biofilm formation) or 100 µL (for preformed biofilm) of bacterial suspension (A625nm 0.08 to 0.1) in technical triplicates and were then carefully mixed with the dilution series of the test substances (24 h cultivation at 25 °C for S. Infantis, 37 °C for other strains) or were directly cultivated to preform biofilms (18 h). For a positive control of bacterial growth, the inoculum was mixed with a pure sterile medium. Furthermore, the sterile medium was included in the plate as a marker of potential microbial contamination. To evaluate planktonic cells growth (MICPC80) and further growth of biofilm cells (MICBC80), the optical density of the content of the microtiter plates was measured spectrophotometrically at 625 nm before and after 24 h (for biofilm formation) of cultivation or before and after additional 20 h incubation with the tested compound (for preformed biofilm). The difference of A625nm was considered as a measure of the ability of cells to grow in the presence of the tested substances. To evaluate the inhibition of biofilm formation (MICBF80) and reduction in preformed biofilms (MICBR80), biomass was quantified using crystal violet staining, and its metabolic activity (MICBM80 and MICMPB80) was estimated by using the MTT (thiazyl tetrazolium bromide, Sigma-Aldrich, USA) reduction assay, both measured spectrophotometrically at 595 nm.
(§3) All inhibitions were calculated using the formula of Chlumsky et al. below (Equation (1)):(1) A625(595)nm inhibition (%)=A625(595)nm (control) – A625(595)nm(natural substance)/A625(595)nm (control)× 100 where A625(595)nm (control) is the absorbance of bacterial suspension/biofilm itself, and A625(595)nm(natural substance) is the absorbance of the bacterial suspension/biofilm with the added natural substance (NAC, RLs, and UA).
(§4) When the minimum inhibitory concentration could not be determined, the MIC was established as >the highest tested concentration for NAC, RLs, and UA.

S. Infantis S59 [2] = test: MIC for planktonic cell growth (A625nm); type: cell-based, Salmonella enterica Infantis; conditions: for MICPC80: ≥80% inhibition, 24 h
Protocol: as §1, §2, §3, §4

[3] = system: S. Enteritidis ATCC 13076; test: MIC for biofilm formation (crystal violet staining); type: cell-based, Salmonella enterica Enteritidis; conditions: for MICBF80: ≥80% prevention, 24 h
Protocol: as §1
The determination of MICs was performed according to Chlumsky et al.. […] To evaluate planktonic cells growth (MICPC80) and further growth of biofilm cells (MICBC80), the optical density of the content of the microtiter plates was measured spectrophotometrically at 625 nm before and after 24 h (for biofilm formation) of cultivation or before and after additional 20 h incubation with the tested compound (for preformed biofilm). […] To evaluate the inhibition of biofilm formation (MICBF80) and reduction in preformed biofilms (MICBR80), biomass was quantified using crystal violet staining, and its metabolic activity (MICBM80 and MICMPB80) was estimated by using the MTT (thiazyl tetrazolium bromide, Sigma-Aldrich, USA) reduction assay, both measured spectrophotometrically at 595 nm.
as §3, with “UA). […]” for “UA).”

S. Infantis S13 [4] = test: MIC for further growth of biofilm cells, preformed biofilm (A625nm); type: cell-based, Salmonella enterica Infantis; conditions: for MICBC80: ≥80% inhibition, 18 h preformed biofilm, 20 h with substance
Protocol: as §1, §2, §3, §4

S. Infantis S59 [5] = test: as above; type: cell-based, Salmonella enterica Infantis; conditions: for MICBC80: ≥80% inhibition, 18 h preformed biofilm, 20 h with substance
Protocol: as §1, §2, §3, §4

L. monocytogenes 149 = test: MIC for metabolic activity of preformed biofilm (MTT reduction assay); type: cell-based, Listeria monocytogenes; conditions: ≥80% inhibition, 20 h with substance
Protocol: as §1
as §2, with “Furthermore, the sterile medium was included in the plate as a marker of potential microbial contamination.” left out, “The difference of A625nm was considered as a measure of the ability of cells to grow in the presence of the tested substances.” left out
as §3, §4

L. monocytogenes 164 = test: as above; type: cell-based, Listeria monocytogenes; conditions: ≥80% inhibition, 20 h with substance
Protocol: as §1
as §2, with “Furthermore, the sterile medium was included in the plate as a marker of potential microbial contamination.” left out, “The difference of A625nm was considered as a measure of the ability of cells to grow in the presence of the tested substances.” left out
as §3, §4

Compound | maximal achieved inhibition (MICPC80 not reached) (S. Infantis S13 [1]; within tested concentrations) | MICPC80 (S. Infantis S13 [1]) | maximal achieved inhibition (MICPC80 not reached) (S. Infantis S59 [2]; within tested concentrations) | MICPC80 (S. Infantis S59 [2]) | maximal achieved inhibition (MICBF80 not reached) ([3]; within tested concentrations) | MICBF80 [3] | maximal achieved inhibition (MICBC80 not reached) (S. Infantis S13 [4]; within tested concentrations) | MICBC80 (S. Infantis S13 [4]) | maximal achieved inhibition (MICBC80 not reached) (S. Infantis S59 [5]; within tested concentrations) | MICBC80 (S. Infantis S59 [5]) | MICMPB80 (L. monocytogenes 149) | MICMPB80 (L. monocytogenes 164)
CC(=O)c1c(O)c(C)c(O)c2c1OC1=CC(=O)C(C(C)=O)C(=O)C12C (single isomer, unassigned; (+)) [UA, (+)-usnic acid] | 25% | > 31.3 µg/mL | 31% | > 31.3 µg/mL | 25% | > 31.3 µg/mL | 33% | > 31.3 µg/mL | 31% | > 31.3 µg/mL | 3.91 µg/mL | 1.96 µg/mL
CC(=O)N[C@@H](CS)C(=O)O [NAC, N-Acetyl-L-cysteine] |  | 6250 µg/mL |  | 6250 µg/mL |  | 12,500 µg/mL |  | 6250 µg/mL |  | 12,500 µg/mL | 6250 µg/mL | 6250 µg/mL
